Assay [1] deals with Human immunodeficiency virus. Kind of assay: Antiviral activity against HIV infected in human MT4 cells. The assay is classed as functional, organism-based. To be noted: Human immunodeficiency virus 1, MT4.
A further assay has as its system Escherichia coli. In words: Antibacterial activity against Escherichia coli. The assay is classed as functional. To be noted: Escherichia coli.
A further assay has as its system Aspergillus niger. In words: Antifungal activity against Aspergillus niger. The assay is classed as functional.
In another assay the test system is Bacillus cereus. Kind of assay: Antibacterial activity against Bacillus cereus. The assay is classed as functional, organism-based.
Assay [2] can be described thus: Antioxidant activity assessed as DPPH radical scavenging activity. The assay is classed as functional. The following applies: dose or concentration not given here. On the technique in general: The DPPH test is a chemical assay of radical scavenging.
For assay [3], the species on record is Mus musculus. Kind of assay: Antioxidant activity in Swiss albino mouse assessed as GSH level per mg tissue. The assay is classed as functional.
For assay [4], the species on record is Mus musculus. Kind of assay: Antioxidant activity in Swiss albino mouse assessed as LPO level per mg tissue. The assay is classed as functional.
Another assay deals with HFF-1. In words: Cytotoxicity against human HFF1 cells incubated for 72 hrs by WST1 dye based assay. The assay is classed as cell-based. The following applies: HFF-1, 72 h. A general note: Tetrazolium dyes change colour on reduction, which living cells bring about.
The test system of another assay is C32. Kind of assay: Cytotoxicity against human C32 cells incubated for 72 hrs by WST1 dye based assay. To be noted: C32, 72 h. The assay is classed as functional, cell-based.
Assay [5] relates to Staphylococcus aureus. Kind of assay: Antibacterial activity against Staphylococcus aureus. The assay is classed as functional. The following applies: Staphylococcus aureus; read-out: MIC.
Another assay relates to Bacillus subtilis. Kind of assay: Antibacterial activity against Bacillus subtilis. The following applies: Bacillus subtilis. The assay is classed as functional.
Another assay relates to T47D. Kind of assay: Cytotoxicity against human T47D cells. The assay is classed as functional, cell-based.
A further assay deals with SNB-19. In words: Cytotoxicity against human SNB19 cells incubated for 72 hrs by WST1 dye based assay. The assay is classed as functional, cell-based. To be noted: SNB-19, 72 h.
Assay [6] deals with MCF7. Kind of assay: Cytotoxicity against human MCF7 cells incubated for 72 hrs by WST1 dye based assay. The assay is classed as functional, cell-based. To be noted: MCF7, 72 h.
In assay [7] the test system is Staphylococcus aureus. In words: Antibacterial activity against methicillin-resistant Staphylococcus aureus. The assay is classed as functional.
Assay [8] relates to Mycobacterium tuberculosis. In words: Antitubercular activity against Mycobacterium tuberculosis H37Rv. The assay is classed as functional.
Assay [9] is described as follows: Inhibition of LTB4 formation in rat polymorphonuclear leukocytes preincubated for 2 mins followed by A-23187 addition after 4 mins. The assay is classed as functional, cell-based.
Another assay deals with Trachea. In words: Inhibition of egg albumin antigen challenge-induced contraction response in methacholine-primed guinea pig trachea at 3 ug/ml. The assay is classed as functional. The following applies: Cavia porcellus.
The species entered for assay [10] is Rattus norvegicus. Kind of assay: Antioxidant activity in albino rat assessed as inhibition of catalase induced H2O2 production. The assay is classed as functional.
The next assay relates to HOP-92. In words: Cytotoxicity against human HOP92 cells assessed as cell growth inhibition after 48 hrs by SRB assay. The assay is classed as functional, cell-based. The following applies: HOP-92, 48 h.
Assay [11] has as its system MCF7. Kind of assay: Cytotoxicity against human MCF7 cells assessed as cell growth inhibition after 48 hrs by SRB assay. The assay is classed as functional, cell-based. The following applies: MCF7, 48 h. Background: In SRB staining, fixed cells bind dye roughly in proportion to their protein.
The test system of assay [12] is Staphylococcus aureus. In words: Antimicrobial activity against Staphylococcus aureus assessed as reduction in bacterial growth at 100 ppm relative to control. The assay is classed as functional.
A further assay has as its system Candida albicans. In words: Antimicrobial activity against Candida albicans assessed as reduction in […] growth at 100 ppm relative to control. The assay is classed as functional.
A further assay relates to Aureobasidium pullulans. Kind of assay: Antimicrobial activity against Pullularia pullulans assessed as reduction in microbial growth at 100 ppm relative to control. The assay is classed as functional.
The test system of another assay is Aspergillus terreus. Kind of assay: Antimicrobial activity against Aspergillus terreus assessed as reduction in microbial growth at 100 ppm relative to control. The assay is classed as functional.
The subject of assay [13] is Trichophyton mentagrophytes. Kind of assay: Antimicrobial activity against Trichophyton mentagrophytes assessed as reduction in microbial growth at 100 ppm relative to control. The assay is classed as functional.
The next assay relates to SNB-75. In words: Cytotoxicity against human SNB75 cells assessed as cell growth inhibition after 48 hrs by SRB assay. The following applies: SNB-75, 48 h. The assay is classed as functional, cell-based.
The subject of another assay is Hs-578T. In words: Cytotoxicity against human Hs578T cells assessed as cell growth inhibition after 48 hrs by SRB assay. The assay is classed as functional, cell-based.
In the next assay the test system is 786-0. In words: Cytotoxicity against human 786-O cells assessed as cell growth inhibition after 48 hrs by SRB assay. The assay is classed as functional, cell-based. The following applies: 786-0, 48 h.
The test system of assay [14] is Rattus norvegicus. Kind of assay: Anti-asthmatic activity in rat assessed as inhibition of egg albumin-induced duration of symptoms of dyspnoea at 5 mg/kg, po administered 90 mins prior to dyspnoea induction. The assay is classed as functional.
The test system of assay [15] is Rattus norvegicus. In words: Anti-asthmatic activity in rat assessed as inhibition of egg albumin-induced duration of symptoms of dyspnoea at 3 mg/kg, po administered 90 mins prior to dyspnoea induction. The assay is classed as functional.
The nature of assay [16]: Antioxidant activity assessed as H2O2 scavenging activity. The assay is classed as functional. To be noted: dose or concentration not given here.

Values after ≈ are worked out from the molar mass of the structure shown.

As for `CCOCn1c(=O)[nH]c2c(c1=O)Nc1ccc(C)cc1S2`, in [1], 4580 nM corresponded to half-maximal inhibition (IC50).
On to `Oc1ncnc2c1N=c1c(c3c(c4ccccc14)=Nc1ccccc1S3)O2`, for which the values for the minimum inhibitory concentration (MIC) against Escherichia coli, against Aspergillus niger and against Bacillus cereus were 87.1 to 97.1 µg/mL (≈ 235 to 262 µM), 79.4 µg/mL (≈ 214 µM) and 66.1 µg/mL (≈ 178 µM), respectively.
For `COc1ccc2c(c1)c1c(c3nc4ccccc4c(=O)n32)Sc2cccc(OC)c2N1`, in [2], the inhibition (as a rule, the drop in the measured response relative to a control, in per cent) lay within 45.6 to 47.3%. For the same compound, the Activity is 6.8 nM in the assay listed under Mus musculus [3] and 4.5 to 4.6 nM in the assay filed under Mus musculus [4].
Take `CCN(CC)CCN1c2cccnc2Sc2cccnc21`: the IC50 (as a rule, the concentration at which inhibition is half-maximal) with HFF-1 was not below 50 µg/mL; in the assay on C32, 6.6 µg/mL (≈ 22 µM).
Turning to `CCSc1ncc2c(n1)N=c1c(c3c(c4ccccc14)=Nc1nc(SCC)nc(O)c1S3)S2`, the MIC (in general, the lowest concentration that inhibits growth of the organism) in the assay with Staphylococcus aureus [5] was determined as 39.8 µg/mL (≈ 78.2 µM); against Aspergillus niger it was 60.3 µg/mL (≈ 119 µM); in the assay with Bacillus subtilis, 63.3 µg/mL (≈ 124 µM). Moreover, inhibition in the assay with Bacillus cereus was half-maximal at 50.5 µg/mL (≈ 99.3 µM) (IC50).
Consider `CN(C)CCCN1c2ccccc2Sc2cccnc21` [PROTHIPENDYL], for which the IC50 was not below 23 µg/mL with HFF-1; 32.3 µg/mL (≈ 113 µM) in the assay with T47D; not below 23 µg/mL in the assay with SNB-19; not below 23 µg/mL with MCF7 [6]; not below 23 µg/mL in the assay on C32.
Turning to `O=C(O)c1cn(C2CC2)c2c3c(c(F)cc2c1=O)Sc1cc(Cl)ccc1N3`, the MIC against Staphylococcus aureus [7] is not below 100 µg/mL.
In turn, `O=c1[nH]c2ccc(Cl)cc2c2c1Sc1cc(Cl)ccc1N2` displayed an MIC in [8] of more than 6.25 µg/mL.
As to `c1cnc2c(c1)Nc1ncccc1S2`, the IC50 is not below 50 µg/mL in the assay with HFF-1, 4.8 µg/mL (≈ 23.9 µM) with MCF7 [6] and 7.5 µg/mL (≈ 37.3 µM) with C32.
As to `C=CCN1c2cccnc2Sc2cccnc21`, in the assay on SNB-19, the IC50 was found to be 18.9 µg/mL (≈ 78.3 µM).
`COc1ccc2c(c1)Sc1nccnc1N2C`: the IC50 in [9] fell in the range of 1 to 5 µg/mL (≈ 4.08 to 20.4 µM). Moreover, 3 µg/mL produced 71% inhibition in the assay with Trachea.
Turning to `O=C1O[C@H]([C@@H](O)CO)C(O)=C1O` [ASCORBIC ACID], in the assay filed under Rattus norvegicus [10], the “inhibition (INH)” value is on record as 71.9%.
Take `CN(C)CCCN1c2nc3ccccc3cc2Sc2cc3ccccc3nc21`: the IC50 in the assay on HOP-92 and in the assay on MCF7 [11] was not above 1000 nM in each case.
As for `Clc1nc2c(nc1Cl)N(CCCN1CCCC1)c1ccccc1S2`, the inhibition at 100 ppm (in the assay on Staphylococcus aureus [12]; with Candida albicans; in the assay on Aureobasidium pullulans; in the assay with Aspergillus terreus; in [13]) was 100% in each case.
Turning to `Cc1ccc(S(=O)(=O)NCCN2c3nc4ccccc4cc3Sc3cc4ccccc4nc32)cc1`, the results for the 50% inhibitory concentration (IC50) in the assay with SNB-75, with Hs-578T and in the assay with 786-0 were 1700 nM, 1700 nM and 480 nM, respectively.
In the case of `CN(C)CCCN1c2ccccc2Sc2nc(Cl)c(Cl)nc21`, the inhibition at 100 ppm (with Staphylococcus aureus [12]; with Candida albicans; in the assay on Aureobasidium pullulans; in the assay with Aspergillus terreus; in [13]) was 100% in each case.
In the case of `Oc1ccc2c(c1)Sc1nccnc1N2`, the inhibition in vivo – broadly, how much of the control response was suppressed – at 5 mg/kg in the assay with Rattus norvegicus [14] came out at 47%. The compound also returned an IC50 in assay [9] of 0.05 to 1 µg/mL (≈ 0.23 to 4.6 µM). Moreover, the inhibition in vivo at 3 mg/kg in the assay on Rattus norvegicus [15] came out at 43%.
With `O=C1C(Cl)=C2Sc3cccnc3NC2c2ccccc21` (stereo not given), in the assay filed under Rattus norvegicus [10], the “inhibition (INH)” value is given as 77.9%. In assay [16], the inhibition was less than 100%.
As for `COc1cccc2c3c(c4nc5ccccc5c(=O)n4c12)Sc1cc(C)ccc1N3`, in assay [2], the inhibition was 45.6 to 47.3%. Further, the Activity in the assay filed under Mus musculus [3] is 6.8 nM; in the assay listed under Mus musculus [4], 4.5 to 4.6 nM.

The record behind these values is ChEMBL document CHEMBL4138122, “Azaphenothiazines - promising phenothiazine derivatives. An insight into nomenclature, synthesis, structure elucidation and biological properties” (Eur J Med Chem, 2017).
